Data on two compounds can be found in patent US20030086987A1, “Salvianolic acid B” (priority 2001, published 2003).

In data set [1] the test system is Human aortic smooth muscle cells (HASMCs). Kind of data set: Rescue of oxLDL induced cell death, MTT assay. Format: cell-based. As to conditions: then 40 μg/mL oxLDL for 24 hr, oxLDL alone 23.5%. Here is the method: Human aortic smooth muscle cells (HASMCs, Cascade Biologics, Inc. Portland, Oreg.) were cultured in Medium 231 (Cascade Biologics, Inc.), supplemented with 5% smooth muscle growth serum (SMGS), 100 untis/mL penicillin, 100 μg/mL streptomycin, 1.25 μ/mL Fungizone (amphotericin B) at 37° C. in 5% CO2 saturated humidity atmosphere. The medium was changed every 4 days, and cells were detached by treatment with 0.05% trypsin, 0.02% EDTA solutions. […] Before each experiment, the medium was removed, and cells were washed and then cultured in serum-free medium containing the supplements indicated above but without SMGS. […] Then, 40 μg/mL oxLDL was added to the incubated medium for another 24 hr. The cytotoxic effect can be determined using the 3-(4,5-dimethylthiazol-2-yl)-2,5-diphenyltetrazolium bromide (MTT) assay method described in Boyd (In Principle of Practice of Oncology, […]., and Rosenberg, S. A. (Eds) Vol. 3, PPO Update, No. 10, 1989).
(Tetrazolium assays rely on reduction of a dye to a coloured formazan, in cell work by metabolically active cells.)

Another data set deals with caspase-3. Kind of data set: Inhibition of oxLDL induced caspase-3 activation, Western blot in HASMCs. The format is cell-based, Human. Conditions: 1 or 10 μg/mL for 24 hr, then 20 μg/mL oxLDL for 24 hr. Here is the method:
Human aortic smooth muscle cells (HASMCs, Cascade Biologics, Inc. Portland, Oreg.) were cultured in Medium 231 (Cascade Biologics, Inc.), supplemented with 5% smooth muscle growth serum (SMGS), 100 untis/mL penicillin, 100 μg/mL streptomycin, 1.25 μ/mL Fungizone (amphotericin B) at 37° C. in 5% CO2 saturated humidity atmosphere. The medium was changed every 4 days, and cells were detached by treatment with 0.05% trypsin, 0.02% EDTA solutions. […] Before each experiment, the medium was removed, and cells were washed and then cultured in serum-free medium containing the supplements indicated above but without SMGS. […] The sample solution was heated at 100° C. for 5 min, cooled down to room temperature, and subjected to 12% SDS-polyacrylamide gel electrophoresis. Then, proteins were transferred to PVDF membranes, blocked with 5% nonfat milk in Tris-buffered saline-Tween 20 (0.1%) at room temperature for 2 hr, and incubated overnight at 4° C. with […] anti-caspase-3 antibody (dilution 1:1000). The membranes were washed three times in Tris-buffered saline-Tween 20, and antibody reactions were detected using horseradish peroxidase-conjugated goat anti-rabbit IgG (0.2 μg/mL) and LumiGLO chemiluminescent detection reagents (Bradford (1976) Analytical Biochem 72: 248-254). Activated caspase-3 (17 kD) was detected in HASMCs after oxLDL treatment.

The next data set deals with IL-1β. Kind of data set: Inhibition of oxLDL induced IL-1β production in HASMCs, sandwich ELISA. The format is cell-based, Human. Conditions: 1, 2.5 and 10 μg/mL for 24 hr, then 20 μg/mL oxLDL for 24 hr. Here is the method: (§1) Human aortic smooth muscle cells (HASMCs, Cascade Biologics, Inc. Portland, Oreg.) were cultured in Medium 231 (Cascade Biologics, Inc.), supplemented with 5% smooth muscle growth serum (SMGS), 100 untis/mL penicillin, 100 μg/mL streptomycin, 1.25 μ/mL Fungizone (amphotericin B) at 37° C. in 5% CO2 saturated humidity atmosphere. The medium was changed every 4 days, and cells were detached by treatment with 0.05% trypsin, 0.02% EDTA solutions. […] Before each experiment, the medium was removed, and cells were washed and then cultured in serum-free medium containing the supplements indicated above but without SMGS. […] IL-1 production was determined with a sandwich ELISA using anti-IL-1 antibodies (e.g., IL-1β and IL-1ra ELISA kits from R&D Systems and Endogen, Inc. respectively).

Another data set concerns IL-1ra. The data set is described as follows: Inhibition of oxLDL induced IL-1ra production in HASMCs, sandwich ELISA. The format is cell-based, Human. Conditions: 1, 2.5 and 10 μg/mL for 24 hr, then 20 μg/mL oxLDL for 24 hr. Here is the method: as §1
(In an ELISA, binding on a coated surface is turned into a signal by an enzyme label.)

For data set [2], the system named is New Zealand White rabbits. Kind of data set: Intima/media area ratio in cholesterol-fed rabbits after femoral artery denudation. The format is in vivo. As to conditions: 2% cholesterol diet, six weeks, probucol 1.5 g/day, salvianolic acid B 375 mg/day; for ratio of the intima area to the media area, thoracic aorta section: CT group 0.1; for ratio of the intima area to the media area, aortic arch section: CT group 0.22; for ratio of the intima area to the media area, abdominal aorta section: CT group 0.58. Here is the method: New Zealand White rabbits were randomly divided into three groups. […] Another group was fed with the control diet containing 1.5 g/day probucol (P group), and the third group was fed with the control diet containing 375 mg/day salvianolic acid B (Sal B group). After being fed for three weeks, all rabbits underwent a femoral artery denudation. After the operation, the diet fed to each group was maintained for anther three weeks. […] Thin sections (5 μm thick) were stained with Mayer's hematoxylin-eosin solution. […] See, e.g., Gordon et al. (1992) Proc […] USA 89: 11312-11316. In the CT group, the ratio of the intima area to the media area of the aortic arch section was 0.22 (±0.04).

In another data set the test system is apoE (−) mice. The data set is described as follows: Atherosclerotic area in the apoE (−) mice. Format: in vivo. As to conditions: 0.15% cholesterol diet with 0.25% salvianolic acid B or 2% SAGE, 113 days. The protocol:
25-week apoE (−) mice from Jackson Laboratory were randomly divided into three groups. Animals in the control group (CT group) were fed with a diet containing 0.15% cholesterol (w/w) (a control diet). Second group (SB group) was fed with the control diet containing 0.25% salvianolic acid B (w/w); and third group (SAGE group) was fed with the control diet containing 2% SAGE (w/w). The feeding period was 113 days. SAGE was prepared as follows:
Salvia miltiorrhiza extract was obtained from extracts of the sliced and ground roots of Salvia miltiorrhiza by using an aqueous ethanol solution (water: ethanol =4:1, v/v). The weight to volume ration of Salvia miltiorrhiza to extraction solvent was 1:10 (w/v).
Angelica sinensis extract was obtained from ethanolic extracts (1:10, w/v).
Glycyrrhizae radix (Glycyrrhiza uralensis) extract was obtained from ethanolic extracts (1:10, w/v).
The weight ratio of Salvia miltiorrhiza extract, Angelica sinensis extract, and Glycyrrhiza uralensis extract was 2:1:1, respectively, based on the dried weights of the raw herbs used.

`O=C(/C=C/c1ccc(O)c2c1[C@H](C(=O)O[C@H](Cc1ccc(O)c(O)c1)C(=O)O)[C@@H](c1ccc(O)c(O)c1)O2)O[C@H](Cc1ccc(O)c(O)c1)C(=O)O` [salvianolic acid B]: the “cell viability of the HASMCs” value in data set [1] (1 μg/mL for 24 hr) is 68.3% (±5.3%); in data set [1] (1.25 μg/mL for 24 hr) it was 57.5% (±14.4%); in data set [1] (10 μg/mL for 24 hr), 57.6% (±18.7%); in data set [1] (20 μg/mL for 24 hr) it was 38.3% (±18.8%). Besides, in the data set with caspase-3, the “activated caspase-3 (17 kD) after oxLDL treatment” value was “no activated caspase-3 was observed”. In addition, the “oxLDL induced IL-1β production” value in the data set with IL-1β is recorded as “inhibit”. Further, in the data set on IL-1ra, the “oxLDL induced IL-1ra production” value is recorded as “inhibit”. In addition, the “ratio of the intima area to the media area, thoracic aorta section” value in data set [2] was “about 0.02”. In data set [2], the “ratio of the intima area to the media area, aortic arch section” value is given as “about 0.07”. The “ratio of the intima area to the media area, abdominal aorta section” value in data set [2] is reported as “about 0.26”. In addition, in the data set with apoE (−) mice, the “Inhibition (%) of atherosclerosis compared with control group” value turned out to be 83%. Also, the Intima area with apoE (−) mice (mean ± S.D.) is on record as 1,563 ± 2,504 10^3 μm^2. In addition, the Media area in the data set with apoE (−) mice (mean ± S.D.) is recorded as 9,763 ± 2,239 10^3 μm^2. Also, the “Intima/Media (ratio)” value in the data set on apoE (−) mice (mean ± S.D., CT 0.770) turned out to be 0.128 ± 0.170.
As to `CC(C)(Sc1cc(C(C)(C)C)c(O)c(C(C)(C)C)c1)Sc1cc(C(C)(C)C)c(O)c(C(C)(C)C)c1` [probucol, reference compound], in data set [2], the “ratio of the intima area to the media area, thoracic aorta section” value was “about 0.03”; the “ratio of the intima area to the media area, aortic arch section” value was “about 0.1”; the “ratio of the intima area to the media area, abdominal aorta section” value was “about 0.33”.
